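Test compounds were applied to cells in 96-well plates for 48 hours at 5 doses. GI50 is the concentration that inhibits growth by half.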 Active and inactive are the calls of the source. Cut-off read from the data, not from the text of the source: active = GI50 up to about 1.1 µM and inactive = higher. Some results are limits rather than exact numbers.

The source of these data is ChEMBL document CHEMBL1201862, “PubChem BioAssay data set” (2004).

Holding throughout (test): inhibition of tumour cell growth, NCI panel, 48 h
Test [1] relates to KM12.
Test [2] has as its system IGROV-1.
For test [3], the system named is DMS-273.
For test [4], the system named is U-251.
The test system of test [5] is OVCAR-5.
The subject of test [6] is A498.
Test [7] has as its system MOLT-4.
Test [8] deals with SNB-75.
For test [9], the system named is OVCAR-8.
The test system of test [10] is OVCAR-4.
In test [11] the test system is HOP-62.
Test [12] relates to HCT-15.
The test system of test [13] is SK-MEL-2.
Test [14] has as its system EKVX.
Test [15] concerns NCI-H460.
For test [16], the system named is SN12C.
Test [17] relates to HCT-116.
Test [18] has as its system MDA-MB-435.
Test [19] relates to MDA-MB-231.
Test [20] concerns T47D.

As to `CNC(=O)CN(CC(=O)O)C(=O)NC`, the GI50 in [1], in test [2], in test [3], in test [4], in test [5] and in test [6] was > 100 µM (inactive) in each case. The GI50 in test [7] was > 100 µM (inactive); in test [8], > 100 µM (inactive); in test [9] it was > 100 µM (inactive); in test [10], > 100 µM (inactive); in [11] it was > 100 µM (inactive); in test [12] it was > 100 µM. Further, the GI50 in [13] and in test [14] was > 100 µM (inactive) in each case.
`COc1ccc(C2C(Cl)C(=O)N2n2cnc3ccccc3c2=O)cc1OC` (configuration not stated): the GI50 in test [1] was > 100 µM (inactive); in test [2], 74.1 µM (inactive); in test [3], > 100 µM (inactive); in [4], > 100 µM (inactive); in [15], 81.1 µM (inactive); in test [5] it was > 100 µM (inactive). In addition, the GI50 is 82.4 µM (inactive) in test [7]; 21.5 µM (inactive) in test [8]; > 100 µM (inactive) in test [9]; > 100 µM (inactive) in test [10]; > 100 µM (inactive) in [11]; > 100 µM (inactive) in test [16]. Besides, the GI50 in [12] was > 100 µM; in test [13] it was > 100 µM (inactive); in test [17] it was 53 µM (inactive); in test [14], > 100 µM (inactive).
As for `CNCC(SC)c1ccc(O)c(O)c1` (configuration not stated), the GI50 is > 100 µM (inactive) in [1]; 34.3 µM (inactive) in [2]; 61.1 µM (inactive) in [4]; 32.1 µM (inactive) in test [18]; 16.7 µM (inactive) in [15]; > 100 µM (inactive) in test [5]. Further, the GI50 in [6] was > 100 µM (inactive); in [7] it was 17.2 µM (inactive); in test [8], 28.8 µM (inactive); in test [9], 19.2 µM (inactive); in test [10] it was 17 µM (inactive); in test [11] it was 36.4 µM (inactive). For the same compound, the GI50 in test [19] was 28.2 µM (inactive); in [20], 23.6 µM (inactive); in test [16] it was 21.5 µM (inactive); in test [12] it was 30.8 µM; in test [13] it was > 100 µM (inactive); in test [17] it was 20.7 µM (inactive). The GI50 in test [14] was 15.8 µM (inactive).
For the compound `C[P+](C)(CC(F)(F)F)c1ccccc1`, the GI50 in test [1], in [2], in test [3], in [4], in [15] and in test [5] was > 100 µM (inactive) throughout. The GI50 in test [6], in test [7], in test [8], in test [9], in test [11] and in test [16] was > 100 µM (inactive) throughout. Further, the GI50 in test [12] is > 100 µM; in test [13], > 100 µM (inactive); in test [17], > 100 µM (inactive); in test [14], > 100 µM (inactive).
`CCCSc1ccc2[nH]c(N3C(=O)/C(=C/c4ccc(SC)cc4)N=C3c3ccccc3)cc2c1`: the GI50 in test [1] was 11 µM (inactive); in test [2], 29.2 µM (inactive); in test [4], 27.1 µM (inactive); in test [18], 5.05 µM (inactive); in test [15], 18.3 µM (inactive); in test [5], > 50 µM (inactive). The GI50 is 26.9 µM (inactive) in [6]; 1.87 µM (inactive) in test [7]; > 34.4 µM (inactive) in test [8]; > 44.6 µM (inactive) in test [9]; 19.6 µM (inactive) in test [10]; 42.6 µM (inactive) in test [11]. The GI50 in test [19] was > 50 µM (inactive); in [20], 32.1 µM (inactive); in test [16] it was > 40.5 µM (inactive); in test [12], 22.1 µM; in [13] it was 24.4 µM (inactive); in [17], 19.9 µM (inactive). In addition, the GI50 in test [14] was 18.2 µM (inactive).
For `C=CCN1CCC(OC(=O)C(O)(C#CC)C2CCCC2)CC1` (configuration not stated), the GI50 in [1], in [2], in test [4], in test [18], in test [15] and in test [5] was > 100 µM (inactive) throughout. Moreover, the GI50 was > 100 µM (inactive) in test [6]; > 100 µM (inactive) in [7]; > 77.3 µM (inactive) in test [8]; > 100 µM (inactive) in [9]; > 100 µM (inactive) in [10]; > 100 µM (inactive) in [11]. For the same compound, the GI50 in test [19] is > 100 µM (inactive); in test [20] it was > 100 µM (inactive); in test [16], > 100 µM (inactive); in [12], > 100 µM; in [13], > 100 µM (inactive); in test [17], > 100 µM (inactive). Further, the GI50 in test [14] is > 100 µM (inactive).
On to `O=C1Nc2ccccc2C(=O)/C1=C/NC(=S)NC1CCCCC1`, for which the GI50 in test [1], in test [2], in [4], in [18], in test [15] and in test [5] was > 100 µM (inactive) each time. The GI50 in test [6], in test [7], in test [8], in test [9], in test [10] and in test [11] was > 100 µM (inactive) in each case. The GI50 in test [19] was > 100 µM (inactive); in test [20], > 100 µM (inactive); in test [16], > 100 µM (inactive); in test [12] it was > 100 µM; in test [13], > 100 µM (inactive); in test [17], > 100 µM (inactive). The GI50 in test [14] was > 100 µM (inactive).
As for `CC(=O)Oc1cc2c(cc1OC(C)=O)C1(C)CCC2(C)c2cc(OC(C)=O)c(OC(C)=O)cc21`, the GI50 in test [1] is 11.6 µM (inactive); in test [2], 26.7 µM (inactive); in test [3], 19.4 µM (inactive); in test [15] it was 20.8 µM (inactive); in [5], 28.4 µM (inactive); in [7], 8.2 µM (inactive). Further, the GI50 in test [8] is 4.92 µM (inactive); in test [9], 15 µM (inactive); in test [10], 14.4 µM (inactive); in test [11] it was 21.6 µM (inactive); in test [16], 40.3 µM (inactive); in test [12] it was 6.92 µM. Also, the GI50 in test [13] is 16.7 µM (inactive); in [14], 35.8 µM (inactive).
`COc1ccc2n[se]nc2c1`: the GI50 in test [1] is 56.4 µM (inactive); in test [2], 38.9 µM (inactive); in test [3], > 100 µM (inactive); in test [4], > 100 µM (inactive); in [5] it was > 100 µM (inactive); in [7], > 100 µM (inactive). Also, the GI50 in test [8] was 64.1 µM (inactive); in test [9], > 100 µM (inactive); in test [10], > 100 µM (inactive); in test [16], > 100 µM (inactive); in test [12], > 100 µM; in [13], 41.5 µM (inactive). Also, in test [14], the GI50 is > 100 µM (inactive).
Regarding `CC(O)CN1c2ccccc2Sc2ccc(Cl)cc21` (configuration not stated), the GI50 in [1], in test [2], in test [4], in [18], in test [15] and in test [5] was > 10 µM (inactive) in each case. Moreover, the GI50 in test [6], in [7], in [8], in [9], in [10] and in [11] was > 10 µM (inactive) in each case. Moreover, the GI50 in [19] was > 10 µM (inactive); in [20], > 10 µM (inactive); in test [16] it was > 10 µM (inactive); in test [12], > 10 µM; in test [13], > 10 µM (inactive); in test [17], > 10 µM (inactive). In addition, the GI50 in test [14] is > 10 µM (inactive).
Turning to `O=C(O)CN(c1ccccc1)S(=O)(=O)c1ccccc1[N+](=O)[O-]`, the GI50 in test [1], in test [2], in [3], in [4], in test [15] and in test [5] was > 100 µM (inactive) throughout. In addition, the GI50 in test [6], in test [7], in test [8], in test [9], in test [10] and in [16] was > 100 µM (inactive) each time. Moreover, the GI50 in [12] was > 100 µM; in test [13] it was > 100 µM (inactive); in [14] it was > 100 µM (inactive).
For the compound `COc1c(OC/C=C(\C)CCC=C(C)C)ccc2ccc(=O)oc12` [COLLININ], the GI50 in test [1] is 43.6 µM (inactive); in test [2], > 100 µM (inactive); in [4], > 100 µM (inactive); in test [18] it was > 100 µM (inactive); in [15], > 10 µM (inactive); in [5], > 100 µM (inactive). Besides, the GI50 was > 100 µM (inactive) in test [6]; 56.5 µM (inactive) in test [7]; > 100 µM (inactive) in test [8]; > 100 µM (inactive) in test [9]; 51.8 µM (inactive) in test [10]; > 100 µM (inactive) in [11]. Also, the GI50 is > 100 µM (inactive) in test [19]; 62.5 µM (inactive) in test [20]; > 100 µM (inactive) in test [16]; 64.9 µM in test [12]; > 100 µM (inactive) in test [13]; > 100 µM (inactive) in test [17]. Further, the GI50 in test [14] was 83.9 µM (inactive).
